Results on one compound are retold here after PMC10578352, “Identification of a Protein Arginine Methyltransferase 7 (PRMT7)/Protein Arginine Methyltransferase 9 (PRMT9) Inhibitor” (Journal of Medicinal Chemistry, 2023).

This test has as its target T1, human recombinant PRMT9 (Homo sapiens, UniProt Q6P2P2).
T1 construct: human recombinant PRMT9 (2–845; N-terminal FLAG-tag, C-terminal His6-tag); FLAG (N); His6 (C); purchased BPS BioScience 79124
T1 sequence (Q6P2P2 2-845): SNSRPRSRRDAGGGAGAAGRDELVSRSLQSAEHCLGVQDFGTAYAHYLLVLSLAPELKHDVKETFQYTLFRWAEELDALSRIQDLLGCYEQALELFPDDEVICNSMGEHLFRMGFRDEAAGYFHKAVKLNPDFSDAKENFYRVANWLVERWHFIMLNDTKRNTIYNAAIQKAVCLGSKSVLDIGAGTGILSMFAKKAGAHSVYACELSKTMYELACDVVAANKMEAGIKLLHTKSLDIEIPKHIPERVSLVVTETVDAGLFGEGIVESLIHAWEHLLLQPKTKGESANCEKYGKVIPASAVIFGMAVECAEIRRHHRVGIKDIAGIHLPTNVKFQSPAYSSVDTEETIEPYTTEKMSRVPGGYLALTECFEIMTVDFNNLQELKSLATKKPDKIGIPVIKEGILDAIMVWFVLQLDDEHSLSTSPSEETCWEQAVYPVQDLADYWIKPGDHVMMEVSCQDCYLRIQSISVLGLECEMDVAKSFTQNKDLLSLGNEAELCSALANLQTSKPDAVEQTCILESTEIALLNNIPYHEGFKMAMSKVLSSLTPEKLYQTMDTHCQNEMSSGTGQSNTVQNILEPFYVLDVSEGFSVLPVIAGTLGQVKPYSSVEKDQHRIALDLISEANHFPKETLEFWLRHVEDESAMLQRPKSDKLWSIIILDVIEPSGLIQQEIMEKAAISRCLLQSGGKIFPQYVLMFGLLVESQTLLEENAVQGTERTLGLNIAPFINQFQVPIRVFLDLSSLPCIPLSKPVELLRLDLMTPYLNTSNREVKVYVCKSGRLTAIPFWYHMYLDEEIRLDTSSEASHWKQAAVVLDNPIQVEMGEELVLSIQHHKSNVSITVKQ
Kind of test: SPR binding to immobilized PRMT9. As to conditions: 1:1 Langmuir model, 25 °C. As to the method: To characterize the effect of compound 1j on PRMT9, we resolved to evaluate its direct binding to the target protein using surface plasmon resonance (SPR). To this aim, human recombinant PRMT9 (2–845; N-terminal FLAG-tag, C-terminal His6-tag) was covalently immobilized on a sensor chip surface using an amine coupling approach and compound 1j was injected over the active and reference cells at 10 different concentrations (2-fold dilution series) from 25 to 0.05 μM using the multicycle modality. Each injection was performed with an association and a dissociation time of 90 and 180 s, respectively, and with a flow rate of 30 μL/min. To reduce false positives from detergent-sensitive, nonspecific aggregation-based binding, detergents (0.05% Tween20) were added to the running buffer in all experiments. The corrected sensorgrams were fitted simultaneously by kinetic analysis using the 1:1 Langmuir model of the BIAevaluation software to obtain equilibrium dissociation constants (KD) and kinetic dissociation (koff) and association (kon) constants, and the curve-fitting efficiency was evaluated by chi-square (χ^2). The χ^2 value of 1j was calculated to be 0.650, indicating a good fit.
SPR experiments were performed on a Biacore T200 biosensor (Cytiva). […] The curve-fitting efficiency was evaluated by the chi-square (χ^2). […]
A general note: Surface plasmon resonance follows binding to a sensor surface in real time, without labels.

pKd: −log10 of the molar value.

Usually pKd stands for the Kd on a negative log10 scale, so that one unit is a factor of ten. `COC(=O)c1cc(O)c2cc(NC(=O)NCCCNC(=N)NC[C@H]3O[C@@H](n4cnc5c(N)ncnc54)[C@H](O)[C@@H]3O)cc(C(F)(F)F)c2c1` [1j, Methyl 6-(3-(3-(3-(((2R,3S,4R,5R)-5-(6-Amino-9H-purin-9-yl)-3,4-dihydroxytetrahydrofuran-2-yl)methyl)guanidino)propyl)ureido)-4-hydroxy-8-(trifluoromethyl)-2-naphthoate]: the “PRMT9 SPR residence time (τR = 1/koff)” value is given as 500 s. Also, the negative-log Kd (pKd) (KD = koff/kon) was 6.73.
